According to PubChem BioAssay AID1963985 (Molecular Pharmacology Branch, DTP, NCI, 2024):

System: 252836-082-R-J2-PDC tumor spheroids, viability
Assay: Anticancer human tumor 252836-082-R-J2-PDC patient-derived head and neck squamous cell carcinoma cell line growth inhibition [PI3K]
Settings: spheroids with HUVEC and MSC; for IC50: curve of first compound; for viability, T/C: stronger effect = lower value
Outline: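 Multi-cell spheroids combine tumor cells with HUVEC and human MSCs, treated with targeted agents alone or with inavolisib, alpelisib, duvelisib or copanlisib. Concentrations fall in half-log steps from at or near clinical Cmax, or from 10 microM where Cmax is unknown; viability read-out.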

[1] = second compound 0.0316 µM, first compound 0.000316 µM
[2] = second compound 0.0316 µM, first compound 0.001 µM
[3] = second compound 0.0316 µM, first compound 0.00316 µM
[4] = second compound 0.0316 µM, first compound 0.01 µM
[5] = second compound 0.0316 µM, first compound 0.0316 µM
[6] = second compound 0.0316 µM, first compound 0.1 µM
[7] = second compound 0.1 µM, first compound 0.000316 µM
[8] = second compound 0.1 µM, first compound 0.001 µM
[9] = second compound 0.1 µM, first compound 0.00316 µM
[10] = second compound 0.1 µM, first compound 0.01 µM
[11] = second compound 0.1 µM, first compound 0.0316 µM
[12] = second compound 0.1 µM, first compound 0.1 µM
[13] = second compound 0.316 µM, first compound 0.000316 µM
[14] = second compound 0.316 µM, first compound 0.001 µM
[15] = second compound 0.316 µM, first compound 0.00316 µM
[16] = second compound 0.316 µM, first compound 0.01 µM
[17] = second compound 0.316 µM, first compound 0.0316 µM
[18] = second compound 0.316 µM, first compound 0.1 µM
[19] = second compound 1 µM, first compound 0.000316 µM
[20] = second compound 1 µM, first compound 0.001 µM
[21] = second compound 1 µM, first compound 0.00316 µM
[22] = second compound 1 µM, first compound 0.01 µM
[23] = second compound 1 µM, first compound 0.0316 µM
[24] = second compound 1 µM, first compound 0.1 µM
[25] = second compound 0.00316 µM, first compound 0.0316 µM
[26] = second compound 0.00316 µM, first compound 0.1 µM
[27] = second compound 0.01 µM, first compound 0.0316 µM
[28] = second compound 0.01 µM, first compound 0.1 µM
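Note: spheroids exposed to agents for seven days before readout.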
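Throughout, for viability, T/C: percent of vehicle DMSO control viability so 100% = untreated growth.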

CC(C)n1nc(-c2ccc3oc(N)nc3c2)c2c(N)ncnc21 + Cc1nc(NC(=O)N2CCCC2C(N)=O)sc1-c1ccnc(C(C)(C)C(F)(F)F)c1
IC50 (second compound 0.0316 µM): 32.2 nM | IC50 (second compound 0.1 µM): 27.6 nM | IC50 (second compound 0.316 µM): 21.2 nM | IC50 (second compound 1 µM): 12.6 nM | IC50 (second compound 3.16 µM): < 0.316 nM | IC50 (second compound 10 µM): < 0.316 nM | viability, T/C [1]: 84.3% | viability, T/C [2]: 76% | viability, T/C [3]: 98% | viability, T/C [4]: 71.5% | viability, T/C [5]: 51.7% | viability, T/C [6]: 21.3% | viability, T/C [7]: 83.8% | viability, T/C [8]: 83.1% | viability, T/C [9]: 79.8% | viability, T/C [10]: 63.9% | viability, T/C [11]: 49% | viability, T/C [12]: 23% | viability, T/C [13]: 82.1% | viability, T/C [14]: 73.1% | viability, T/C [15]: 75.8% | viability, T/C [16]: 59.6% | viability, T/C [17]: 44.4% | viability, T/C [18]: 20.7% | viability, T/C [19]: 56.5% | viability, T/C [20]: 53.4% | viability, T/C [21]: 61.6% | viability, T/C [22]: 48.7% | viability, T/C [23]: 42.6% | viability, T/C [24]: 19.5% | viability, T/C (second compound 3.16 µM, first compound 0.000316 µM): 43.2% | viability, T/C (second compound 3.16 µM, first compound 0.001 µM): 55.2% | viability, T/C (second compound 3.16 µM, first compound 0.00316 µM): 47.5% | viability, T/C (second compound 3.16 µM, first compound 0.01 µM): 40% | viability, T/C (second compound 3.16 µM, first compound 0.0316 µM): 28.6% | viability, T/C (second compound 3.16 µM, first compound 0.1 µM): 17.2% | viability, T/C (second compound 10 µM, first compound 0.000316 µM): 33.2% | viability, T/C (second compound 10 µM, first compound 0.001 µM): 31.1% | viability, T/C (second compound 10 µM, first compound 0.00316 µM): 29.6% | viability, T/C (second compound 10 µM, first compound 0.01 µM): 35.4% | viability, T/C (second compound 10 µM, first compound 0.0316 µM): 18.8% | viability, T/C (second compound 10 µM, first compound 0.1 µM): 8.12%

CCCS(=O)(=O)Nc1ccc(F)c(C(=O)c2c[nH]c3ncc(-c4ccc(Cl)cc4)cc23)c1F + COc1c(OCCCN2CCOCC2)ccc2c3n(c(=NC(=O)c4cnc(N)nc4)nc12)CCN3
IC50 (second compound 0.00316 µM): 4400 nM | IC50 (second compound 0.01 µM): 4970 nM | IC50 (second compound 0.0316 µM): 2960 nM | IC50 (second compound 0.1 µM): < 31.6 nM | IC50 (second compound 0.316 µM): < 31.6 nM | IC50 (second compound 1 µM): < 31.6 nM | viability, T/C [25]: 88.2% | viability, T/C [26]: 92.8% | viability, T/C (second compound 0.00316 µM, first compound 0.316 µM): 80.6% | viability, T/C (second compound 0.00316 µM, first compound 1 µM): 90.1% | viability, T/C (second compound 0.00316 µM, first compound 3.16 µM): 67.2% | viability, T/C (second compound 0.00316 µM, first compound 10 µM): 7.48% | viability, T/C [27]: 71.8% | viability, T/C [28]: 73.6% | viability, T/C (second compound 0.01 µM, first compound 0.316 µM): 72.9% | viability, T/C (second compound 0.01 µM, first compound 1 µM): 87.5% | viability, T/C (second compound 0.01 µM, first compound 3.16 µM): 79.7% | viability, T/C (second compound 0.01 µM, first compound 10 µM): 8.12% | viability, T/C [5]: 64.8% | viability, T/C [6]: 57.6% | viability, T/C (second compound 0.0316 µM, first compound 0.316 µM): 67.9% | viability, T/C (second compound 0.0316 µM, first compound 1 µM): 59% | viability, T/C (second compound 0.0316 µM, first compound 3.16 µM): 49.8% | viability, T/C (second compound 0.0316 µM, first compound 10 µM): 9.78% | viability, T/C [11]: 32.3% | viability, T/C [12]: 39.8% | viability, T/C (second compound 0.1 µM, first compound 0.316 µM): 43.3% | viability, T/C (second compound 0.1 µM, first compound 1 µM): 43.3% | viability, T/C (second compound 0.1 µM, first compound 3.16 µM): 31.7% | viability, T/C (second compound 0.1 µM, first compound 10 µM): 4.74% | viability, T/C [17]: 16.1% | viability, T/C [18]: 15.8% | viability, T/C (second compound 0.316 µM, first compound 0.316 µM): 16.7% | viability, T/C (second compound 0.316 µM, first compound 1 µM): 19.4% | viability, T/C (second compound 0.316 µM, first compound 3.16 µM): 18.1% | viability, T/C (second compound 0.316 µM, first compound 10 µM): 1.83% | viability, T/C [23]: 5.69% | viability, T/C [24]: 5.15% | viability, T/C (second compound 1 µM, first compound 0.316 µM): 7.11% | viability, T/C (second compound 1 µM, first compound 1 µM): 7.02% | viability, T/C (second compound 1 µM, first compound 3.16 µM): 5.99% | viability, T/C (second compound 1 µM, first compound 10 µM): 1.31%

CC(=O)c1c(C)c2cnc(Nc3ccc(N4CCNCC4)cn3)nc2n(C2CCCC2)c1=O + COc1c(OCCCN2CCOCC2)ccc2c3n(c(=NC(=O)c4cnc(N)nc4)nc12)CCN3
IC50 (second compound 0.00316 µM): > 100 nM | IC50 (second compound 0.01 µM): > 100 nM | IC50 (second compound 0.0316 µM): > 100 nM | IC50 (second compound 0.1 µM): < 0.316 nM | IC50 (second compound 0.316 µM): < 0.316 nM | IC50 (second compound 1 µM): < 0.316 nM | viability, T/C (second compound 0.00316 µM, first compound 0.000316 µM): 95% | viability, T/C (second compound 0.00316 µM, first compound 0.001 µM): 93.1% | viability, T/C (second compound 0.00316 µM, first compound 0.00316 µM): 85.6% | viability, T/C (second compound 0.00316 µM, first compound 0.01 µM): 96.3% | viability, T/C [25]: 87.8% | viability, T/C [26]: 99% | viability, T/C (second compound 0.01 µM, first compound 0.000316 µM): 84.7% | viability, T/C (second compound 0.01 µM, first compound 0.001 µM): 81.4% | viability, T/C (second compound 0.01 µM, first compound 0.00316 µM): 78.5% | viability, T/C (second compound 0.01 µM, first compound 0.01 µM): 84.3% | viability, T/C [27]: 81.1% | viability, T/C [28]: 83.7% | viability, T/C [1]: 69.5% | viability, T/C [2]: 60.9% | viability, T/C [3]: 66.9% | viability, T/C [4]: 56.5% | viability, T/C [5]: 64% | viability, T/C [6]: 62.6% | viability, T/C [7]: 37.1% | viability, T/C [8]: 41.2% | viability, T/C [9]: 37.8% | viability, T/C [10]: 45.5% | viability, T/C [11]: 41.7% | viability, T/C [12]: 37.5% | viability, T/C [13]: 18.2% | viability, T/C [14]: 21.1% | viability, T/C [15]: 20.6% | viability, T/C [16]: 18.7% | viability, T/C [17]: 21.8% | viability, T/C [18]: 16.6% | viability, T/C [19]: 4.69% | viability, T/C [20]: 5.36% | viability, T/C [21]: 5.54% | viability, T/C [22]: 5.58% | viability, T/C [23]: 6.27% | viability, T/C [24]: 4.95%
